This is an account of results in patent US7414066B2, “Amide compounds and medications containing the same technical field” (Kowa Company Ltd., priority 1999, dated 2008).

A word on the melting point: it is the temperature, or range, at which the solid turns liquid.

Compound `CCSc1cc(C)nc(SCC)c1NC(=O)CCCSc1nc2ccccc2s1` [Compound No. 823, 4-(benzothiazol-2-ylthio)-N-[2,4-bis(ethylthio)-6-methyl-3-pyridyl]butanamide] had a melting point of 119 to 120 °C.

In turn, `CSc1cc(C)nc(SC)c1NC(=O)CCCCCCCSc1nc2ccccc2[nH]1` [Compound No. 807, 8-(benzimidazol-2-ylthio)-N-[2,4-bis(methylthio)-6-methyl-3-pyridyl]octanamide] had a melting point of 186 to 187 °C.

As for `CSc1nc(SC)c(NC(=O)CCCCCSc2nc3ccccc3o2)c(SC)n1` [Compound No. 1401, 6-(benzoxazol-2-ylthio)-N-[2,4,6-tris(methylthio)-5-pyrimidyl]hexanamide], the melting point lay in the range of 149 to 153 °C.

Take `CSc1nccc(C)c1NC(=O)CCCCCSc1nc2ccccc2o1` [Compound No. 155, 6-(benzoxazol-2-ylthio)-N-(4-methyl-2-methylthio-3-pyridyl)hexanamide]: the melting point was 122 to 124 °C.

For `CCSc1cc(C)nc(SCC)c1NC(=O)CSc1nc2cccc(C(=O)OC)c2o1` [Compound No. 1427, 2-(7-methoxycarbonylbenzoxazol-2-ylthio)-N-[2,4-bis(ethylthio)-6-methyl-3-pyridyl]acetamide], the melting point is 168 to 169 °C.

For the compound `Cc1cc(SC(C)C)c(NC(=O)CCCCSc2nc3ccccc3[nH]2)c(SC(C)C)n1` [Compound No. 864, 5-(benzimidazol-2-ylthio)-N-[2,4-bis(isopropylthio)-6-methyl-3-pyridyl]pentanamide], the melting point was 175 to 176 °C.

`Cc1cc(SC(C)C)c(NC(=O)CCCCCCSc2nc3ccccc3o2)c(SC(C)C)n1` [Compound No. 846, 7-(benzoxazol-2-ylthio)-N-[2,4-bis(isopropylthio)-6-methyl-3-pyridyl]heptanamide] registered a melting point of 76 to 78 °C.

As to `CCSc1cc(C)nc(SCC)c1NC(=O)CCCCCCCCSc1nc2ccccc2o1` [compound 818, 9-(benzoxazol-2-ylthio)-N-[2,4-bis(ethylthio)-6-methyl-3-pyridyl]nonanamide], the melting point was 84 to 87 °C.

With `CSc1nc(C)ccc1NC(=O)CCCCCSc1nc2ccccc2[nH]1` [compound 475, 6-(benzimidazol-2-ylthio)-N-(6-methyl-2-methylthio-3-pyridyl)hexanamide], the melting point fell in the range of 138 to 140 °C.

`CSc1cc(C)nc(SC)c1NC(=O)CCCCCCCSc1nc2ccccc2o1` [Compound No. 787, 8-(benzoxazol-2-ylthio)-N-[2,4-bis(methylthio)-6-methyl-3-pyridyl]octanamide] yielded a melting point of 119 to 122 °C.

With `Cc1cc(SC(C)C)c(NC(=O)CCCSc2nc3cccc(C(F)(F)F)c3o2)c(SC(C)C)n1` [Compound No. 1289, 4-(7-trifluoromethylbenzoxazol-2-ylthio)-N-[2,4-bis(isopropylthio)-6-methyl-3-pyridyl]butanamide], the melting point is 135 to 136 °C.

With `CSc1cc(C)nc(SC)c1NC(=O)CCCCCCCSc1nc2cccc(C(F)(F)F)c2o1` [Compound No. 1253, 8-(7-trifluoromethylbenzoxazol-2-ylthio)-N-[2,4-bis(methylthio)-6-methyl-3-pyridyl]octanamide], the melting point was in the range of 115 to 116 °C.

For `CSc1cc(C)nc(SC)c1NC(=O)CCCCCCSc1nc2ccccc2[nH]1` [Compound No. 806, 7-(benzimidazol-2-ylthio)-N-[2,4-bis(methylthio)-6-methyl-3-pyridyl]heptanamide], the melting point fell in the range of 189 to 192 °C.

`CSc1nc(C)ccc1NC(=O)CSc1nc2ccccc2s1` [Compound No. 461, 2-(benzothiazol-2-ylthio)-N-(6-methyl-2-methylthio-3-pyridyl)acetamide] returned a melting point of 175 to 176 °C.

On to `Cc1cc(SC(C)C)c(NC(=O)CCCSc2nc3ccccc3o2)c(SC(C)C)n1` [compound 843, 4-(benzoxazol-2-ylthio)-N-[2,4-bis(isopropylthio)-6-methyl-3-pyridyl]butanamide], for which the melting point is 128 to 129 °C.

The compound `CSc1cc(C)nc(SC)c1NC(=O)CCCCCCCSc1nc2c(C)c(Cl)cc(C(C)C)c2o1` [Example 95, 8-(5-chloro-7-isopropyl-4-methylbenzoxazol-2-ylthio)-N-[2,4-bis(methylthio)-6-methyl-3-pyridyl]octanamide] displayed a melting point of 128 to 131 °C.

In turn, `CSc1cc(C)nc(SC)c1NC(=O)CCCCCCSc1nc2ccccc2o1` [Compound No. 786, 7-(benzoxazol-2-ylthio)-N-[2,4-bis(methylthio)-6-methyl-3-pyridyl]heptanamide] had a melting point of 137 to 139 °C.

`Cc1cc(SC(C)C)c(NC(=O)CCCSc2nc3c(C)c(Cl)cc(C(C)C)c3o2)c(SC(C)C)n1` [Compound No. 1299, 4-(5-chloro-7-isopropyl-4-methylbenzoxazol-2-ylthio)-N-[2,4-bis(isopropylthio)-6-methyl-3-pyridyl]butanamide] showed a melting point of 141 to 143 °C.

On to `CSc1cc(C)nc(SC)c1NC(=O)CCCSc1nc2ccccc2s1` [compound 793, 4-(benzothiazol-2-ylthio)-N-[2,4-bis(methylthio)-6-methyl-3-pyridyl]butanamide], for which the melting point is 131 to 133 °C.

As to `CCSc1cc(C)nc(SCC)c1NC(=O)CCCCCCSc1nc2cccc(C(F)(F)F)c2o1` [Compound No. 1272, 7-(7-trifluoromethylbenzoxazol-2-ylthio)-N-[2,4-bis(ethylthio)-6-methyl-3-pyridyl]heptanamide], the melting point was 127 to 128 °C.

Take `CSc1cc(C)nc(SC)c1NC(=O)CCCCCSc1nc2ccccc2s1` [compound 795, 6-(benzothiazol-2-ylthio)-N-[2,4-bis(methylthio)-6-methyl-3-pyridyl]hexanamide]: the melting point lay in the range of 123 to 125 °C.

`CSc1nc(C)ccc1NC(=O)CCCCCCCCSc1nc2ccccc2s1` [compound 468, 9-(benzothiazol-2-ylthio)-N-(6-methyl-2-methylthio-3-pyridyl)nonanamide] registered a melting point of 104 to 105 °C.

On to `Cc1cc(SC(C)C)c(NC(=O)CCCCSc2nc3cccc(C(F)(F)F)c3o2)c(SC(C)C)n1` [Compound No. 1290, 5-(7-trifluoromethylbenzoxazol-2-ylthio)-N-[2,4-bis(isopropylthio)-6-methyl-3-pyridyl]pentanamide], for which the melting point fell in the range of 118 to 120 °C.

On to `CSc1nc(C)ccc1NC(=O)CCCCCSc1nc2ccccc2s1` [compound 465, 6-(benzothiazol-2-ylthio)-N-(6-methyl-2-methylthio-3-pyridyl)hexanamide], for which the melting point was in the range of 122 to 123 °C.

For `CCSc1cc(C)nc(SCC)c1NC(=O)CCCCCCCSc1nc2ccccc2o1` [Compound No. 817, 8-(benzoxazol-2-ylthio)-N-[2,4-bis(ethylthio)-6-methyl-3-pyridyl]octanamide], the melting point was in the range of 82 to 84 °C.

On to `CSc1ncccc1NC(=O)CCCCCSc1nc2ccccc2o1` [compound 5, 6-(benzoxazol-2-ylthio)-N-(2-methylthio-3-pyridyl)hexanamide], for which the melting point lay within 127 to 128 °C.

Compound `CSc1ncccc1NC(=O)CCCCCSc1nc2ccccc2[nH]1` [compound 25, 6-(benzimidazol-2-ylthio)-N-(2-methylthio-3-pyridyl)hexanamide] showed a melting point of 121 to 123 °C.
